For series [1], the target named is Hsp70. Particulars: cited from earlier work.
For series [2], the system named is Hsp70. Particulars: cited from earlier work. This is another data set of the same source.
For series [3] the following is noted: basic or acidic aqueous solution; cited from earlier work.
Series [4] has as its target T1, HSP70 (Mus musculus, UniProt Q61696).
T1 construct: imaging an inducible target using an endogenous protein involved in stress response; from tissue; host or cells: heated right hind limb of live mice
Nature of the series: in vivo analysis of FAM-labeled bifunctional molecule after hind limb heating. Also on record: species or system mice. Particulars: 20 nmol i.v., about 4 hours post-injection (8 hrs post hyperthermia), dermis dissected. The method, then:
As a control, 6-carboxyfluorescein (6-FAM) was administered at the same dose (20 nmol) in the same manner. Due to the high intrinsic autofluorescence of the dermis, experimental mice were sacrificed, the dermis dissected, and imaged on a small animal dedicated optical system (Xenogen/Caliper IVIS-200) using the appropriate excitation/emission filter set.

SMILES strings stand for the structures. pKd: −log10 of the molar value. Structures can show the parent of a compound that is named as a salt.

One may read the pKd as the negative decadic logarithm of the Kd, by convention in mol/L.

T1 sequence (Q61696 whole entry): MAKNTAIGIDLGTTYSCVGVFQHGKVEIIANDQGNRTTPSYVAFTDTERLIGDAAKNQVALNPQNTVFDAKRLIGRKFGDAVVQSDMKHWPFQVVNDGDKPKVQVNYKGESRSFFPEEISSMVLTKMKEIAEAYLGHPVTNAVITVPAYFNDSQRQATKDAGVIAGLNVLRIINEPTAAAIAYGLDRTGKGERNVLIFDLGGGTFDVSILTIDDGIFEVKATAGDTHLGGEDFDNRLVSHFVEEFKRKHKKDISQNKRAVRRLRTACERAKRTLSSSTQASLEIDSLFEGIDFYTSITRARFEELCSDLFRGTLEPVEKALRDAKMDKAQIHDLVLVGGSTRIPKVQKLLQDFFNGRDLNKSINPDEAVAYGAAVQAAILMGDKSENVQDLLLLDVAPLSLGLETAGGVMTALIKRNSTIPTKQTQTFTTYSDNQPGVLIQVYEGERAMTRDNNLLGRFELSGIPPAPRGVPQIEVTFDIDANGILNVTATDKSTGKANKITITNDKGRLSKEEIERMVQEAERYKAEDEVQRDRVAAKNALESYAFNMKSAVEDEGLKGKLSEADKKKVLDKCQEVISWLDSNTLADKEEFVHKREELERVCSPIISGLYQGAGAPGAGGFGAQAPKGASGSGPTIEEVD

Turning to `N=C(N)NCCCCCCC(=O)N[C@@H](O)C(=O)NCCCCNCCCN` (racemic) [Compound 15-DSG, (±)7-[(aminoiminomethyl)amino]-N-[2-[[4-[(3-aminopropyl)amino]butyl]amino]-1-hydroxy-2-oxoethyl]heptanamide trihydrochloride], the pKd on Hsp70 [1] was 5.40. In addition, the “effect on Hsp70 steady state ATPase activity” value in the series with Hsp70 [2] is listed as “stimulates”. The hydrolytic stability result in series [3] is on record as “hydrolyses gradually”.
As for `O=C(O)c1ccc2c(c1)C1(OC2=O)c2ccc(O)cc2Oc2cc(O)ccc21` [Compound 6-FAM, 6-carboxyfluorescein], at HSP70 [4], the “fluorescence in heated limb tissue” value is on record as “minimal level of fluorescence”.

Values taken from patent publication US20110270151A1, “IMAGE-GUIDED ENERGY DEPOSITION FOR TARGETED DRUG DELIVERY” (The Methodist Hospital Research Institute, priority 2008, published 2011).
